For series [1], the system named is Photobacterium sp. JH-ISH-224 α2-6-sialyltransferase Psp26ST(15-501)-His6 A366G mutant, SEQ ID NO: 2. Briefly: Sialyltransferase kinetics, Psp26ST(15-501)-His6 A366G mutant. The format is biochemical. Particulars: apparent, varied CMP-Neu5Ac. The procedure:
Reactions were carried out in duplicate at 20° C. for 20 minutes in a total volume of 10 μL in a proper buffer at the optimal pH according to the pH profile of the wild-type enzyme (see, Ding, 2011, supra). When LacβMU was used as an acceptor, the conditions were: Tris-HCl buffer (200 mM, pH 8.0), enzyme (0.3 μM), varied concentrations of LacβMU (0.1, 0.25, 0.4, 1.0, 2.0, 4.0, and 6.0 mM) with a fixed concentration of CMP-Neu5Ac (1.0 mM) or varied concentrations of CMP-Neu5Ac (0.1, 0.25, 0.4, 1.0, 2.0, 4.0, and 6.0 mM) with a fixed concentration of LacβMU (1.0 mM). When GalNAcα2AA was used as an acceptor, the conditions were: NaOAc-HOAc buffer (200 mM, pH 5.0), enzyme (6 μM), varied concentrations of GalNAcα2AA (0.5, 0.8, 1.0, 2.0, 4.0, 8.0, and 10.0 mM) and a fixed concentration of CMP-Neu5Ac (4.0 mM) or varied concentrations of CMP-Neu5Ac (0.5, 1.0, 2.0, 4.0, 5.0, 8.0, and 10.0 mM) with a fixed concentration of GalNAcα2AA (1.0 mM). When GalNAcαSer was used as an acceptor, the conditions were: Tris-HCl buffer (200 mM, pH 8.0), enzyme (0.6 μM), varied concentrations of GalNAcαSer (0.1, 0.25, 0.5, 1.0, 2.0, 4.0, 8.0, and 10.0 mM) and a fixed concentration of CMP-Neu5Ac (2.0 mM). When GalNAcαThr was used as an acceptor, the conditions were: Tris-HCl buffer (200 mM, pH 8.0), enzyme (3.0 μM), varied concentrations of GalNAcαThr (0.5, 1.0, 2.0, 4.0, 10.0, 20.0, 40.0, 60.0 mM) and a fixed concentration of CMP-Neu5Ac (4.0 mM). Results analysis was performed using the HPLC system as described above for sialyltransferase activity assays. Apparent kinetic parameters were obtained by fitting the experimental data (the average values of duplicate assay results) into the Michaelis-Menten equation using Grafit 5.0.

Series [2] relates to Photobacterium sp. JH-ISH-224 α2-6-sialyltransferase Psp26ST(15-501)-His6, wild type, SEQ ID NO: 23. Particulars: apparent, donor CMP-Neu5Ac, cited from earlier work.
The target of series [3] is Photobacterium sp. JH-ISH-224 α2-6-sialyltransferase Psp2,6ST(15-501)-His6, wild type, SEQ ID NO: 23 (Photobacterium sp. JT-ISH-224, UniProt A8QYL1). Briefly: Donor hydrolysis kinetics (CMP-Neu5Ac hydrolysis), wild-type Psp2,6ST(15-501)-His6. Particulars: apparent, 20° C., 10 min, Tris-HCl pH 8.0. Format: biochemical. The procedure:
(§1) Procedure for Kinetic Analysis of Donor Hydrolysis by His6-Pd2,6ST(16-497), Psp26ST(15-501)-His6 and its A235D and A366G Mutants
(§2) The kinetics study for the donor hydrolysis activity of His6-Pd2,6ST(16-497) was carried out at 37° C. for 20 min in Tris-HCl buffer (200 mM, pH 8.0). The kinetics study for the donor hydrolysis activities of Psp26ST(15-501)-His6 and its A235D mutant was carried out at 20° C. for 10 min in Tris-HCl buffer (200 mM, pH 8.0). All reactions were performed in duplicate in a total volume of 10 μL containing varied concentrations of CMP-Neu5Ac (10, 20, 40, 60, 80 and 100 mM) and the enzyme (6 μM). Reactions were stopped by adding 10 μL of ethanol and then centrifuged. The supernatants were analyzed by a P/ACETM capillary electrophoresis (CE) system equipped with a photodiode array (PDA) detector (Beckman Coulter, Inc., Fullerton, Calif.). CE conditions were as follows: 75 μm i.d. capillary, 25 KV/80μÅ, 5 s vacuum injections, monitored at 200 nm and 254 nm, the running buffer used was sodium tetraborate (25 mM, pH 9.4). Apparent kinetic parameters were obtained by fitting the experimental data (the average values of duplicate assay results) into the Michaelis-Menten equation using Grafit 5.0.

Substrate in series [4]: CC(=O)N[C@H]1[C@H]([C@H](O)[C@H](O)CO)O[C@](OP(=O)(O)OC[C@H]2O[C@@H](n3ccc(N)nc3=O)[C@H](O)[C@@H]2O)(C(=O)O)C[C@@H]1O
Put plainly: Donor hydrolysis kinetics (CMP-Neu5Ac hydrolysis), Psp2,6ST(15-501)-His6 A235D mutant. The format is biochemical, Photobacterium sp. JH-ISH-224. Conditions: other: apparent, 20° C., 10 min, Tris-HCl pH 8.0. The procedure:
as §1, §2

Series [5] can be described thus: Sialyltransferase activity assays, statements not tied to one acceptor (LacβMU, GalNAcα2AA, GalNAcαSer, GalNAcαThr). The format is biochemical. The procedure: When LacβMU was used as an acceptor, the assay was performed in duplicate in 10 μL of Tris-HCl buffer (100 mM, pH 8.0) containing CMP-Neu5Ac (1 mM), LacβMU (1 mM), MgCl2 (20 mM), wild-type Psp2,6ST(15-501)-His6 or its mutant (0.3 μM). When an α-GalNAc-terminated acceptor was used, the assay was performed in duplicate in 10 μL of Tris-HCl buffer (100 mM, pH 8.0 for GalNAcαSer/Thr) or NaOAc-HOAc (100 mM, pH 5.0 for GalNAcα2AA) containing CMP-Neu5Ac (1.5 mM), the acceptor (1 mM), MgCl2 (20 mM), wild-type Psp2,6ST(15-501)-His6 or its mutant (3.0 μM). Reactions were allowed to proceed at 20° C. for 20 min and stopped by adding 10 μL of cold ethanol. The analysis of sialylated product conversion was performed using the HPLC system as described above for sialyltransferase activity assay. The 4-methylumbelliferone (MU)-labeled fluorescent acceptor and the product formed were detected with excitation at 325 nm and emission at 372 nm. The 2-aminobenzoic acid (2AA)-labeled fluorescent acceptors and the products formed were detected with excitation at 315 nm and emission at 400 nm. The 9-fluorenylmethylcarbamate (Fmoc)-labeled fluorescent acceptors and the products formed were detected with excitation at 262 nm and emission at 313 nm.

Series [6] is described as follows: Kinetics of CMP-Neu5Ac donor hydrolysis activity (capillary electrophoresis). The format is biochemical. The procedure:
as §1, §2

Substrate in series [7]: CC(=O)N[C@H]1[C@H]([C@H](O)[C@H](O)CO)O[C@](OP(=O)(O)OC[C@H]2O[C@@H](n3ccc(N)nc3=O)[C@H](O)[C@@H]2O)(C(=O)O)C[C@@H]1O
Put plainly: Donor hydrolysis kinetics (CMP-Neu5Ac hydrolysis), His6-Pd2,6ST(16-497). Particulars: other: apparent, 37° C., 20 min, Tris-HCl pH 8.0, pH 2.6. The format is biochemical, Photobacterium damselae. The procedure:
as §1, §2

[8] abbreviates: GalNAcα2AA 1.0 mM, NaOAc-HOAc pH 5.0, 20° C.
The mark [9] stands for this setting: LacβMU 1.0 mM, Tris-HCl pH 8.0, 20° C.

Like-named read-outs stand apart in the source and are kept apart here.

Take `CC(=O)N[C@H]1[C@H]([C@H](O)[C@H](O)CO)O[C@](OP(=O)(O)OC[C@H]2O[C@@H](n3ccc(N)nc3=O)[C@H](O)[C@@H]2O)(C(=O)O)C[C@@H]1O` [CMP-Neu5Ac, cytidine 5′-monophosphate N-acetylneuraminic acid]: the Michaelis constant (Km) (commonly the substrate concentration at which the rate is half of its maximum) in series [1] (setting [8]) is 3300 ± 400 µM; in series [1] (setting [9]) it was 630 µM; in series [2] (acceptor GalNAcα2AA), 3900 ± 400 µM; in series [2] (acceptor LacβMU), 620 µM. Also, the kcat (usually the maximal rate divided by the concentration of active sites) was 0.0983 ± 0.0033 s⁻¹ in series [1] (setting [8]); “(1.3 ± 0.1) × 10^2 min^−1” in series [1] (setting [9]); 0.08 ± 0.0033 s⁻¹ in series [2] (acceptor GalNAcα2AA); “(1.4 ± 0.1) × 10^2 min^−1” in series [2] (acceptor LacβMU); “(2.9 ± 0.3) × 10^2 min^−1” in series [3].

B1: Photobacterium sp. JH-ISH-224 α2-6-sialyltransferase Psp2,6ST(15-501)-His6 A235D mutant, SEQ ID NO: 14 (Photobacterium sp. JT-ISH-224; A235D) (protein)
chain: CNNSEENTQSIIKNDINKTIIDEEYVNLEPINQSNISFTKHSWVQTCGTQQLLTEQNKESISLSVVAPRLDDDEKYCFDFNGVSNKGEKYITKVTLNVVAPSLEVYVDHASLPTLQQLMDIIKSEEENPTAQRYIAWGRIVPTDEQMKELNITSFALINNHTPADLVQEIVKQAQTKHRLNVKLSSNTAHSFDNLVPILKELNSFNNVTVTNIDLYDDGSDEYVNLYNWRDTLNKTDNLKIGKDYLEDVINGINEDTSNTGTSSVYNWQKLYPANYHFLRKDYLTLEPSLHELRDYIGDSLKQMQWDGFKKFNSKQQELFLSIVNFDKQKLQNEYNSSNLPNFVFTGTTVWAGNHEREYYAKQQINVINNAINESSPHYLGNSYDLFFKGHPGGGIINTLIMQNYPSMVDIPSKISFEVLMMTDMLPDAVAGIASSLYFTIPAEKIKFIVFTSTETITDRETALRSPLVQVMIKLGIVKEENVLFWA
Regarding B1, the catalytic constant (kcat) in series [4] turned out to be 4.17 ± 0.333 s⁻¹.

B2: A235D: Psp26ST(15-501)-His6 with A235D point mutation; SEQ ID NO: 14 (protein)
chain: CNNSEENTQSIIKNDINKTIIDEEYVNLEPINQSNISFTKHSWVQTCGTQQLLTEQNKESISLSVVAPRLDDDEKYCFDFNGVSNKGEKYITKVTLNVVAPSLEVYVDHASLPTLQQLMDIIKSEEENPTAQRYIAWGRIVPTDEQMKELNITSFALINNHTPADLVQEIVKQAQTKHRLNVKLSSNTAHSFDNLVPILKELNSFNNVTVTNIDLYDDGSDEYVNLYNWRDTLNKTDNLKIGKDYLEDVINGINEDTSNTGTSSVYNWQKLYPANYHFLRKDYLTLEPSLHELRDYIGDSLKQMQWDGFKKFNSKQQELFLSIVNFDKQKLQNEYNSSNLPNFVFTGTTVWAGNHEREYYAKQQINVINNAINESSPHYLGNSYDLFFKGHPGGGIINTLIMQNYPSMVDIPSKISFEVLMMTDMLPDAVAGIASSLYFTIPAEKIKFIVFTSTETITDRETALRSPLVQVMIKLGIVKEENVLFWA
modifications: C-terminal His6; Synthetic Psp26ST(15-501) A235D
B2: the “sialylation activity compared to wild-type” value in series [5] is recorded as “maintaining most of the sialylation activity”. Besides, the “donor hydrolysis activity compared to wild-type” value in series [6] was “decreased donor hydrolysis activity”.

B3: Photobacterium damselae α2-6-sialyltransferase His6-Pd2,6ST(16-497) (Photobacterium damselae) (protein)
chain: CNSDNTSLKETVSSNSADVVETETYQLTPIDAPSSFLSHSWEQTCGTPILNESDKQAISFDFVAPELKQDEKYCFTFKGITGDHRYITNTTLTVVAPTLEVYIDHASLPSLQQLIHIIQAKDEYPSNQRFVSWKRVTVDADNANKLNIHTYPLKGNNTSPEMVAAIDEYAQSKNRLNIEFYTNTAHVFNNLPPIIQPLYNNEKVKISHISLYDDGSSEYVSLYQWKDTPNKIETLEGEVSLLANYLAGTSPDAPKGMGNRYNWHKLYDTDYYFLREDYLDVEANLHDLRDYLGSSAKQMPWDEFAKLSDSQQTLFLDIVGFDKEQLQQQYSQSPLPNFIFTGTTTWAGGETKEYYAQQQVNVINNAINETSPYYLGKDYDLFFKGHPAGGVINDIILGSFPDMINIPAKISFEVLMMTDMLPDTVAGIASSLYFTIPADKVNFIVFTSSDTITDREEALKSPLVQVMLTLGIVKEKDVLFWA
B3: in series [7], the kcat worked out at 3.67 ± 0.333 s⁻¹.

Source of the values: US9938510B2, “Photobacterium sp. alpha-2-6-sialyltransferase variants” (The Regents of the University of California, priority 2014, dated 2018).
